Results reported in US20180289678A1, “PHARMACEUTICAL COMPOSITION, PHARMACEUTICAL DOSAGE FORM, PROCESS FOR THEIR PREPARATION, METHODS FOR TREATING AND USES THEREOF” (Boehringer Ingelheim International GmbH, priority 2009, published 2018).
Like-named read-outs stand apart in the source and are kept apart here.

Assay: Study .2: multiple rising dose trial in diabetic patients, once daily for 8 days, pharmacokinetic parameters
Assay type: in vivo, human
Settings: Study .2, fasted
Description: 5. Pharmacokinetic Parameters
The pharmacokinetic parameters of pharmaceutical compositions and pharmaceutical dosage forms are assessed in healthy volunteer and patient populations. In the studies shown below, the participants fasted on the day of sampling, unless as otherwise stated (see for example study .3). The active substance in the studies below is the compound (I.9), preferably in the crystalline form (I.9X), and the dose of active ingredient is indicated in mg.
For the quantification of plasma concentrations of the active ingredient, 2.7 mL of blood was collected and transferred into an EDTA (ethylendiaminetetraacetic acid)-anticoagulant blood drawing tube. The EDTA-anticoagulated blood samples were centrifuged immediately after collection. Centrifugation lasted for about 10 minutes (at about 2,000×gf to 4,000×gf) at 4-8° C. or within 30 minutes while stored on ice. Concentrations of active substance in EDTA human plasma samples were quantitated using a HPLC/MS/MS method. The assay method comprised a solid phase supported liquid-liquid extraction of human plasma coupled with HPLC/MS/MS determination of the extracted samples. The HPLC/MS/MS assay was validated for the range of 1.11 to 1110 nM in human plasma.
Study .2: Multiple rising dose trial in a diabetic patient population of N=48, once daily administration for 8 days. Patients were administered tablets as described in Example 10 (section Examples of formulations).
AUC0-inf:area under the concentration-time curve of the analyte in plasma over the time interval from 0 extrapolated to infinity.
Cmax: maximum concentration of the analyte in plasma.
Tmax: time from dosing to maximum concentration.
AUCT,SS:area under the concentration-time curve of the analyte in plasma over the time interval from 0 to 24 h at steady-state.
Cmax,ss:maximum concentration of the analyte in plasma at steady state over a uniform dosing interval.
tmax,ss:time from dosing to maximum concentration at steady state.

[1] = 2.5 mg once daily, steady state

OC[C@H]1O[C@@H](c2ccc(Cl)c(Cc3ccc(O[C@H]4CCOC4)cc3)c2)[C@H](O)[C@@H](O)[C@@H]1O [Compound (I.9), 1-chloro-4-(β-D-glucopyranos-1-yl)-2-[4-((S)-tetrahydrofuran-3-yloxy)-benzyl]-benzene]
AUCτ,ss Max [1]: 0.677 µM·h | AUCτ,ss Mean [1]: 0.471 µM·h | AUCτ,ss Min [1]: 0.283 µM·h | tmax,ss Median [1]: 90 min | tmax,ss Min [1]: 59 min | Cmax (2.5 mg once daily, steady state, read-out: Cmax,ss Max): 96.3 nM | Cmax (2.5 mg once daily, steady state, read-out: Cmax,ss Mean): 68.5 nM | Cmax (2.5 mg once daily, steady state, read-out: Cmax,ss Min): 40.3 nM | AUC0-inf Max (2.5 mg single dose): 0.631 µM·h | AUC0-inf Min (2.5 mg single dose): 0.326 µM·h | AUC0-inf,norm Max (2.5 mg single dose): 252 nmol·h/L/mg | AUC0-inf,norm Median (2.5 mg single dose): 200 nmol·h/L/mg | AUC0-inf,norm Min (2.5 mg single dose): 130 nmol·h/L/mg | AUC0-inf,norm gMean (2.5 mg single dose): 187 nmol·h/L/mg | Cmax,norm Max (2.5 mg single dose): 32 nmol/L/mg | Cmax,norm Median (2.5 mg single dose): 25 nmol/L/mg | Cmax,norm Min (2.5 mg single dose): 17 nmol/L/mg | Cmax,norm gMean (2.5 mg single dose): 25 nmol/L/mg | tmax Max (2.5 mg single dose): 90 min | tmax Min (2.5 mg single dose): 40 min | Cmax (2.5 mg single dose, read-out: Cmax Max): 81.2 nM | Cmax (2.5 mg single dose, read-out: Cmax Mean): 62.4 nM | Cmax (2.5 mg single dose, read-out: Cmax Min): 43.3 nM | AUCτ,ss Max (10 mg once daily, steady state): 2.58 µM·h | AUCτ,ss Mean (10 mg once daily, steady state): 2.03 µM·h | AUCτ,ss Min (10 mg once daily, steady state): 1.64 µM·h | tmax,ss Min (10 mg once daily, steady state): 59 min | Cmax (10 mg once daily, steady state, read-out: Cmax,ss Max): 479 nM | Cmax (10 mg once daily, steady state, read-out: Cmax,ss Mean): 283 nM | Cmax (10 mg once daily, steady state, read-out: Cmax,ss Min): 172 nM | AUC0-inf Max (10 mg single dose): 2.4 µM·h | AUC0-inf Min (10 mg single dose): 1.6 µM·h | AUC0-inf,norm Max (10 mg single dose): 240 nmol·h/L/mg | AUC0-inf,norm Median (10 mg single dose): 183 nmol·h/L/mg | AUC0-inf,norm Min (10 mg single dose): 160 nmol·h/L/mg | AUC0-inf,norm gMean (10 mg single dose): 189 nmol·h/L/mg | Cmax,norm Max (10 mg single dose): 34 nmol/L/mg | Cmax,norm Median (10 mg single dose): 23 nmol/L/mg | Cmax,norm Min (10 mg single dose): 16 nmol/L/mg | Cmax,norm gMean (10 mg single dose): 24 nmol/L/mg | tmax Median (10 mg single dose): 90 min | tmax Min (10 mg single dose): 59 min | Cmax (10 mg single dose, read-out: Cmax Max): 344 nM | Cmax (10 mg single dose, read-out: Cmax Mean): 245 nM | Cmax (10 mg single dose, read-out: Cmax Min): 163 nM | AUCτ,ss Max (25 mg once daily, steady state): 6.65 µM·h | AUCτ,ss Mean (25 mg once daily, steady state): 4.99 µM·h | AUCτ,ss Min (25 mg once daily, steady state): 3.44 µM·h | tmax,ss Max (25 mg once daily, steady state): 252 min | tmax,ss Min (25 mg once daily, steady state): 40 min | Cmax (25 mg once daily, steady state, read-out: Cmax,ss Max): 793 nM | Cmax (25 mg once daily, steady state, read-out: Cmax,ss Mean): 630 nM | Cmax (25 mg once daily, steady state, read-out: Cmax,ss Min): 443 nM | AUC0-inf Max (25 mg single dose): 6.92 µM·h | AUC0-inf Min (25 mg single dose): 3.69 µM·h | AUC0-inf,norm Max (25 mg single dose): 277 nmol·h/L/mg | AUC0-inf,norm Median (25 mg single dose): 186 nmol·h/L/mg | AUC0-inf,norm Min (25 mg single dose): 148 nmol·h/L/mg | AUC0-inf,norm gMean (25 mg single dose): 191 nmol·h/L/mg | Cmax,norm Max (25 mg single dose): 36 nmol/L/mg | Cmax,norm Median (25 mg single dose): 23 nmol/L/mg | Cmax,norm Min (25 mg single dose): 17 nmol/L/mg | Cmax,norm gMean (25 mg single dose): 24 nmol/L/mg | tmax Max (25 mg single dose): 240 min | tmax Min (25 mg single dose): 59 min | Cmax (25 mg single dose, read-out: Cmax Max): 905 nM | Cmax (25 mg single dose, read-out: Cmax Mean): 606 nM
